A word on the EC50: it is the concentration at which the effect is half-maximal. As usually defined, the IC50 is the midpoint of a concentration-inhibition curve.

In one data set the test system is Hepatocyte. As to the kind of experiment: Inhibition of glucose production in rat primary hepatocytes treated for 15 to 30 mins prior to gluconeogenic substrate dihydroxyacetone addition. The data set is classed as functional, cell-based.
The target of another data set is Adenosine kinase (Homo sapiens, UniProt P55263). As to the kind of experiment: Inhibition of human recombinant adenosine kinase expressed in Escherichia coli.
Data set [1] in a line: Inhibition of pig heart AMP deaminase. Also on record: species or system Sus scrofa.
Data set [2] deals with T1, Glycogen phosphorylase, muscle form (Oryctolagus cuniculus, UniProt P00489).
T1 sequence (P00489 whole entry): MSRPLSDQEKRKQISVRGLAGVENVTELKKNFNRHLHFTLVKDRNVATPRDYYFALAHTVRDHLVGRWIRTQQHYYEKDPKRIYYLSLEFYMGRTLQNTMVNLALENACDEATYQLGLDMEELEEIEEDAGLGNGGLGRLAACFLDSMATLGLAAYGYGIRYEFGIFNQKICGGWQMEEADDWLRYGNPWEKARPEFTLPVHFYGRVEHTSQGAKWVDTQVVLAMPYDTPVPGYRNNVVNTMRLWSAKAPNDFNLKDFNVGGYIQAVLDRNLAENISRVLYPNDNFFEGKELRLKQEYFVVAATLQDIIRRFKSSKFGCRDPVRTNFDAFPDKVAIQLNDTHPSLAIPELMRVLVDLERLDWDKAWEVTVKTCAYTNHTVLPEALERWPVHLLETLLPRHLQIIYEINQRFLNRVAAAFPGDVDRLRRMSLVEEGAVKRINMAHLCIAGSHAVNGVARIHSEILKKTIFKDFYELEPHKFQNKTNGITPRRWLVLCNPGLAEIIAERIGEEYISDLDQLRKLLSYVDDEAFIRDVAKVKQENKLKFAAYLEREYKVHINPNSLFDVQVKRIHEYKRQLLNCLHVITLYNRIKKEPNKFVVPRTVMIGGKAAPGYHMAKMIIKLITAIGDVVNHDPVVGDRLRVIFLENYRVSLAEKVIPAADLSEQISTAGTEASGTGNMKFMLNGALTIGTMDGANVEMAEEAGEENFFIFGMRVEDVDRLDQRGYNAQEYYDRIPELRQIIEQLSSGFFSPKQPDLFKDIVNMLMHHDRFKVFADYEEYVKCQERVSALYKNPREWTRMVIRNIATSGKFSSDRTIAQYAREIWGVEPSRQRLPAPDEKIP
As to the kind of experiment: Inhibition of rabbit muscle glycogen phosphorylase.

The nature of data set [3]: Inhibition of New Zealand white rabbit liver phosphofructokinase. More on the design: species or system Oryctolagus cuniculus.
Data set [4] can be described thus: Plasma concentration in overnight-fasted Sprague-Dawley rat at 20 mg/kg, ip after 1 hr. Also on record: dose 20 mg/kg, route intraperitoneal. The data set is classed as ADME, organism-based.
The test system of data set [5] is Liver. As to the kind of experiment: Drug concentration in overnight-fasted Sprague-Dawley rat liver at 20 mg/kg, ip after 1 hr. The data set is classed as ADME, organism-based. Also on record: dose 20 mg/kg, route intraperitoneal. To be noted: in vivo.
In data set [6] the test system is Rattus norvegicus. Put plainly: Reduction in blood glucose level in overnight-fasted Sprague-Dawley rat at 20 mg/kg, ip within 1 hr. It is filed as organism-based. Conditions: in vivo. Also on record: dose 20 mg/kg, route intraperitoneal; scale not given: the % may be the effect or the level left.
Data set [7] has as its system Rattus norvegicus. As to the kind of experiment: Increase in fructose-1,6-bisphosphate level in overnight-fasted Sprague-Dawley rat liver at 20 mg/kg, ip relative to control. The data set is classed as organism-based. Also on record: dose 20 mg/kg, route intraperitoneal. Conditions: in vivo.
The subject of data set [8] is Rattus norvegicus. As to the kind of experiment: Oral bioavailability in fasted Sprague-Dawley rat assessed as urinary excretion of phosphonic acid up to 300 mg/kg. It is filed as ADME, organism-based, Urine. Conditions: in vivo.
Data set [9] has as its system Liver. Put plainly: Drug concentration in overnight-fasted Sprague-Dawley rat liver assessed as {5-[6-Amino-9-(2,2-dimethyl-propyl)-9H-purin-8-yl]-furan-2-yl}- phosphonic acid level at 50 mg/kg, po after 1 hr. The data set is classed as ADME, organism-based. Also on record: dose 50 mg/kg, route oral. Conditions: in vivo.
Data set [10] has as its system Liver. Put plainly: Drug concentration in overnight-fasted Sprague-Dawley rat liver assessed as {5-[6-Amino-9-(2,2-dimethyl-propyl)-9H-purin-8-yl]-furan-2-yl}- phosphonic acid level at 50 mg/kg, po after 2 hrs. Also on record: dose 50 mg/kg, route oral. To be noted: in vivo. It is filed as ADME, organism-based.

Bounds are passed on as bounds.

Adenosine kinase, sequence (P55263 whole entry): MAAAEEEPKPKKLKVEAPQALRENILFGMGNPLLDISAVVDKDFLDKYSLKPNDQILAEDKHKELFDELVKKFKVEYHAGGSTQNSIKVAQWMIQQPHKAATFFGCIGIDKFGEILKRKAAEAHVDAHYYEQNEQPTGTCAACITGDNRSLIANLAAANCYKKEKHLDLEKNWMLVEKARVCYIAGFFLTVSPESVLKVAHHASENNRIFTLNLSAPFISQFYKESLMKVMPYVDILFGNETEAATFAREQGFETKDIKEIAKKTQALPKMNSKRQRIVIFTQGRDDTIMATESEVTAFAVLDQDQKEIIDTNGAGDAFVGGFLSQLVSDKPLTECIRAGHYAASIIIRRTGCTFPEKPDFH

`CC(C)(C)Cn1c(-c2ccc(P(=O)(O)O)o2)nc2c(N)ncnc21`: the figures for the EC50 (in the data set with Hepatocyte; in [2]; in data set [3]) were 90 µM, over 100 µM and over 100 µM, respectively. The IC50 on Adenosine kinase is over 100 µM; in data set [1], 390 µM. In addition, the concentration at 1 h in data set [4] stood at 38.5 µM. In the data set on Liver [5], this molecule gave a Drug uptake of 51.3 nmol/g. For the same molecule, the results for the Activity in the data set on Rattus norvegicus [6] and in the data set with Rattus norvegicus [7] were 65% and 10, respectively. In addition, the F in the data set on Rattus norvegicus [8] came out at 1.6%.
`CC(C)C(=O)OCOP(=O)(OCOC(=O)C(C)C)c1ccc(-c2nc3c(N)ncnc3n2CC(C)(C)C)o1` came in with a concentration giving a half-maximal response (EC50) in the data set on Hepatocyte of 3 µM. For the same molecule, the F with Rattus norvegicus [8] came out at 8.1%. Besides, the figures for the Drug uptake with Liver [9] and in the data set with Liver [10] were 3.5 nmol/g and 2 nmol/g, respectively.

The record behind these values is ChEMBL document CHEMBL1138458, “Fructose-1,6-bisphosphatase inhibitors. 1. Purine phosphonic acids as novel AMP mimics” (J Med Chem, 2009).
